According to PMC10703426, “New characterization of dihydroergotamine receptor pharmacology in the context of migraine: utilization of a β-arrestin recruitment assay” (Frontiers in Neurology, 2023):
Where a name gives a salt, the structure may show the parent alone.

Key:
[1] = biological target: T1, 5-HT1F (Homo sapiens, UniProt P30939); test: gpcrMAX PathHunter β-arrestin recruitment, antagonist mode; assay type: cell-based
T1 construct: ProLink enzyme-donor fragment of β-galactosidase (own knowledge of the PathHunter design)
T1 sequence (P30939 1-366): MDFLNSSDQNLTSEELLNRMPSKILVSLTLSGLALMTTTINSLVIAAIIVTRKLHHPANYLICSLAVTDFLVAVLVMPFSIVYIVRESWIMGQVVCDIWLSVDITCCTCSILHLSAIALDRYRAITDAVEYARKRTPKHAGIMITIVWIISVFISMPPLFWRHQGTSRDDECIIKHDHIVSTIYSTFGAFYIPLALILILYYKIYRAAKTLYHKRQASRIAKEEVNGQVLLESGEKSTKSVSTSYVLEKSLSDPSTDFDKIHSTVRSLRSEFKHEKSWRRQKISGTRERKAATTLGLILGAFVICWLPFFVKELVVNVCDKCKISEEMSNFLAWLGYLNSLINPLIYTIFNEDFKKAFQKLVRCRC
Experimental: (§1) PathHunter cell lines were expanded from freezer stocks according to standard procedures and cells were seeded in a total volume of 20 μL into white-walled, 384-well microplates in duplicate and incubated at 37°C prior to testing. […] Intermediate dilution (1% vehicle concentration) of sample stocks was performed to generate a 5× sample in assay buffer, of which 5 μL was added to the cells and incubated for 90 or 180 min at 37°C or room temperature, depending on the specific receptor, as established by manufacturer optimization protocols (see Supplementary Table 1). For antagonist activity, cells were preincubated with an antagonist for 30 min, followed by an agonist challenge at 80% of the maximal effective concentration (EC80). Intermediate dilution of sample stocks was performed to generate 5× sample in assay buffer, of which 5 μL was added to cells and incubated at 37°C or room temperature for 30 min. This was followed by an addition of 5 μL of 6× EC80 agonist in assay buffer to the cells, which were incubated at 37°C or room temperature for 90 or 180 min. Assay signal for agonist and antagonist modes was generated through a single addition of 12.5 or 15 μL (50% v/v) of PathHunter Detection reagent cocktail, followed by a 1-h incubation at room temperature. Further experimental details can be found in the Supplementary File. Microplates were read with a PerkinElmer EnVision (Shelton, CT) instrument for chemiluminescent signal detection.
(§2) Measurement of agonist and antagonist activity in the assay was calculated as percent activity of relative luminescence units (from positive control). Significance of agonist/antagonist activity was determined based upon prespecified criteria provided by Eurofins DiscoverX. In brief, receptor activity >30% was considered a significant agonist effect. Receptor inhibition >50% was considered a significant inhibitory effect. Please refer to the Supplementary File for more detail.
(§3) Samples were added to cells and incubated for 90 or 180 minutes at 37 °C or room temperature, depending on the specific receptor, as noted, with specific incubation protocols outlined in Supplemental Table 1. For antagonist activity, preincubation temperatures were performed at the temperatures specified in Supplemental Table 1, per target. Incubation with 6× EC80 agonist was determined by the assay manufacturer and selected in order to provide a challenge that was low enough to be below the saturation point, so as to not bias the results, while still at a high enough challenge concentration to yield a robust signal-to-noise ratio. Further information is available from Eurofins Discovery Services upon request.

[2] = biological target: T2, CXCR7 (Homo sapiens, UniProt P25106); test: Radioligand binding assay (as worded in the discussion); conditions: at concentrations <1.0 μM
T2 sequence (P25106 whole entry, the tested form may be a part): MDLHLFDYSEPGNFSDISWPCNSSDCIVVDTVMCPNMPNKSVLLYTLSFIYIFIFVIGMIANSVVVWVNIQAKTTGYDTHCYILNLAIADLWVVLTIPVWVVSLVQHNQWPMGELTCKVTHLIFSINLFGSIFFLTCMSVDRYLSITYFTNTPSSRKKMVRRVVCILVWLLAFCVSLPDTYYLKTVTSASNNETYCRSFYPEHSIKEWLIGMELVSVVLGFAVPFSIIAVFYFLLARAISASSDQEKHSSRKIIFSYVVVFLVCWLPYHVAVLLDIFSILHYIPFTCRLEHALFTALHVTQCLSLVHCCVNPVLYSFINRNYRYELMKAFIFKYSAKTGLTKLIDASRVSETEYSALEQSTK

[3] = biological target: T2, CXCR7; test: gpcrMAX PathHunter β-arrestin recruitment, agonist mode; assay type: cell-based; design: ProLink enzyme-donor fragment of β-galactosidase (own knowledge of the PathHunter design)
Experimental: as §1, with “This was followed by an addition of 5 μL of 6× EC80 agonist in assay buffer to the cells, which were incubated at 37°C or room temperature for 90 or 180 min. Assay signal for agonist and antagonist modes was generated through a single addition of 12.5 or 15 μL (50% v/v) of PathHunter Detection reagent cocktail, followed by a 1-h incubation at room temperature. Further experimental details can be found in the Supplementary File.” left out
Measurement of agonist and antagonist activity in the assay was calculated as percent activity of relative luminescence units (from positive control). Significance of agonist/antagonist activity was determined based upon prespecified criteria provided by Eurofins DiscoverX. […]

[4] = biological target: T3, D2 (Homo sapiens, UniProt P14416); test: Radioligand competition binding, [3H]7-OH-DPAT, HEK-293 cells
T3 construct: host or cells: HEK-293
T3 sequence (P14416 1-414 isoform P14416-2): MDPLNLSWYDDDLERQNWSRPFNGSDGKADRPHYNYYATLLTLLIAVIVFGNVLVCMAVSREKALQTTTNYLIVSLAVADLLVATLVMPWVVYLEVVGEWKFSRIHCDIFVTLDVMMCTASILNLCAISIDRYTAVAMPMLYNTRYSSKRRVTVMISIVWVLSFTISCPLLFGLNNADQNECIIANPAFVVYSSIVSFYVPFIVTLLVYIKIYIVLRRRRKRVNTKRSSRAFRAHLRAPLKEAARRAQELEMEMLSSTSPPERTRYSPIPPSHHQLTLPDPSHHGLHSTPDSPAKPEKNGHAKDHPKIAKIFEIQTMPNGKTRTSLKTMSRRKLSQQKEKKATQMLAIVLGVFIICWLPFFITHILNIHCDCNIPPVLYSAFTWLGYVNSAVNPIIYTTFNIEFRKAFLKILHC
Experimental: (§4) All assays were performed in duplicate (ie, 2 replicates per assay, per standard manufacturer protocol).

[5] = system: 5-HT2C; conditions: IV DHE (53 ng/mL); cited from earlier work
[6] = system: 5-HT5A; conditions: IV DHE (53 ng/mL); cited from earlier work
[7] = biological target: T4, 5-HT1A (Homo sapiens, UniProt P08908); test: gpcrMAX PathHunter β-arrestin recruitment, agonist mode; assay type: cell-based; conditions: 10 μM; >30% activity = agonist
T4 construct: ProLink enzyme-donor fragment of β-galactosidase (own knowledge of the PathHunter design)
T4 sequence (P08908 whole entry, the tested form may be a part): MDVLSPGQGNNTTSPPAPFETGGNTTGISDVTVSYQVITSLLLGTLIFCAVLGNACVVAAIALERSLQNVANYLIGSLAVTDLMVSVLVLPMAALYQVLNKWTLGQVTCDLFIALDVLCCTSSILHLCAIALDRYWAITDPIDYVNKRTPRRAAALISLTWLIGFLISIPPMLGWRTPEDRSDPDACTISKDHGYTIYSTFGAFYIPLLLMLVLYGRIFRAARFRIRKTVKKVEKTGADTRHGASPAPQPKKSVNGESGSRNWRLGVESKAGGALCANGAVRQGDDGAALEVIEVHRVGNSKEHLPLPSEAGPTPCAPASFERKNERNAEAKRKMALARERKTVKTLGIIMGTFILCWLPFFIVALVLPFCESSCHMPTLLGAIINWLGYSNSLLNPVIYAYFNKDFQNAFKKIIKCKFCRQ
Experimental: as §1, §2, §3

[8] = biological target: T5, 5-HT2C (Homo sapiens, UniProt P28335); test: as above; assay type: cell-based; conditions: 10 μM; >30% activity = agonist
T5 construct: ProLink enzyme-donor fragment of β-galactosidase (own knowledge of the PathHunter design)
T5 sequence (P28335 33-458): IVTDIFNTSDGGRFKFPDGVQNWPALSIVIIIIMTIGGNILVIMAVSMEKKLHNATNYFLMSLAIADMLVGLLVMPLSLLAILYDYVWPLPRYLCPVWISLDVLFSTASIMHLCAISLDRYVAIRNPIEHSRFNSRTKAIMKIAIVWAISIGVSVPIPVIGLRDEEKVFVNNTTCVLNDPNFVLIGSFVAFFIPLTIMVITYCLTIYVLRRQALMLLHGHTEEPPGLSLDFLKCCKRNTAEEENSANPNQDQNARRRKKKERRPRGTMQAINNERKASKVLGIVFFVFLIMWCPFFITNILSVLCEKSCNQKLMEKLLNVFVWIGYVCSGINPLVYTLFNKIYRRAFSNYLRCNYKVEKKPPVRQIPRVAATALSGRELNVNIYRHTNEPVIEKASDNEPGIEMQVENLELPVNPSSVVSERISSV
Experimental: as §1, §2, §3

[9] = biological target: T6, 5-HT5A (Homo sapiens, UniProt P47898); test: as above; assay type: cell-based; conditions: 10 μM; >30% activity = agonist
T6 construct: ProLink enzyme-donor fragment of β-galactosidase (own knowledge of the PathHunter design)
T6 sequence (P47898 whole entry, the tested form may be a part): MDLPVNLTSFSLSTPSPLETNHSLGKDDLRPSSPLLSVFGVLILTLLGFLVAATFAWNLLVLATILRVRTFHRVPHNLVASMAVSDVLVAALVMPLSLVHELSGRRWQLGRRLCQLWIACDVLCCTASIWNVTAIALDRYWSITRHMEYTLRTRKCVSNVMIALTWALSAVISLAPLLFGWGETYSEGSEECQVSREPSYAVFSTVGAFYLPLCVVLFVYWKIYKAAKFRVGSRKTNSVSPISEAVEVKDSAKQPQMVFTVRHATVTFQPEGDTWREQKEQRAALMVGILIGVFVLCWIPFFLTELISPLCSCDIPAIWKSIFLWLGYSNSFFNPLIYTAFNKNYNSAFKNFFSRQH
Experimental: as §1, §2, §3

[10] = biological target: T7, 5-HT1B (Homo sapiens, UniProt P28222); test: as above; assay type: cell-based; conditions: 10 μM; >30% activity = agonist
T7 construct: host or cells: Chem-1 cells
T7 sequence (P28222 whole entry): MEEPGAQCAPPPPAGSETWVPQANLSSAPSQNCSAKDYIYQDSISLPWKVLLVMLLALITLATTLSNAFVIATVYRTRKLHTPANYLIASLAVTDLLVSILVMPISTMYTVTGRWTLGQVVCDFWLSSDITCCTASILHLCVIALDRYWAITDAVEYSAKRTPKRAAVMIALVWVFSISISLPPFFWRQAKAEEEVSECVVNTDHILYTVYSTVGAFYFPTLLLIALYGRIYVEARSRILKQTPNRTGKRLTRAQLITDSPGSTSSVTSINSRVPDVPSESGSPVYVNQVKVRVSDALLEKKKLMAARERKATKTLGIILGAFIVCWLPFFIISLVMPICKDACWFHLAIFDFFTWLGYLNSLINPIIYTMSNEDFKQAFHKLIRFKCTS
Experimental: as §1, §2, §3

[11] = biological target: T8, D2S (Homo sapiens, UniProt P14416); test: as above; assay type: cell-based; conditions: 10 μM; >30% activity = agonist
T8 construct: ProLink enzyme-donor fragment of β-galactosidase (own knowledge of the PathHunter design)
T8 sequence (P14416 1-414 isoform P14416-2): as the sequence (P14416 1-414 isoform P14416-2) above
Experimental: as §1, §2, §3

[12] = biological target: T9, D5 (Homo sapiens, UniProt P21918); test: as above; assay type: cell-based; conditions: 10 μM; >30% activity = agonist
T9 construct: ProLink enzyme-donor fragment of β-galactosidase (own knowledge of the PathHunter design)
T9 sequence (P21918 whole entry, the tested form may be a part): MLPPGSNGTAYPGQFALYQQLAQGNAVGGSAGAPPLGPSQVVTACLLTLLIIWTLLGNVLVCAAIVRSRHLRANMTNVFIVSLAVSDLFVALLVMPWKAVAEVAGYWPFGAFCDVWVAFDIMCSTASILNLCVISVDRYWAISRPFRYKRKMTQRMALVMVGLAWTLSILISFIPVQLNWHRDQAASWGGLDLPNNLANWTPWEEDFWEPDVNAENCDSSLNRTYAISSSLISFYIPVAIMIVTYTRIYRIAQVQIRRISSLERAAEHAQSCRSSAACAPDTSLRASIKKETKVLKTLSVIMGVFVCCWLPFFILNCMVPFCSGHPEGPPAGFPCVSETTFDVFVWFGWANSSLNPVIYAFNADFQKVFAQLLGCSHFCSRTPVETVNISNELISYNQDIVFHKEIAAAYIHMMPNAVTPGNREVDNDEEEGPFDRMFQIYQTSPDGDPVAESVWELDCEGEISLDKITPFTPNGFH
Experimental: as §1, §2, §3

[13] = biological target: T10, D2L (Homo sapiens, UniProt P14416); test: as above; assay type: cell-based; conditions: 10 μM; >30% activity = agonist
T10 construct: ProLink enzyme-donor fragment of β-galactosidase (own knowledge of the PathHunter design)
T10 sequence (P14416 whole entry, the tested form may be a part): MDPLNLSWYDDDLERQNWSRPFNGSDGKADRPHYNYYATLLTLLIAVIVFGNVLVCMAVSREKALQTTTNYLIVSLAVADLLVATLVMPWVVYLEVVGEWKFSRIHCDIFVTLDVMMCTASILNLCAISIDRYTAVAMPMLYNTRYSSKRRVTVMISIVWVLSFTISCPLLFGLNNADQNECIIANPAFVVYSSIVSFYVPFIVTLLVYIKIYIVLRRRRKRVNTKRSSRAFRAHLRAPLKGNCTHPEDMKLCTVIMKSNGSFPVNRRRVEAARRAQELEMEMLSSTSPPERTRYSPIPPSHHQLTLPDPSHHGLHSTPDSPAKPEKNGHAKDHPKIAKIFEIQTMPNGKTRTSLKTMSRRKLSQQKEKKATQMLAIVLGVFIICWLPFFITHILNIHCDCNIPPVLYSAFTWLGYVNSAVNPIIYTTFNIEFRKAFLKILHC
Experimental: as §1, §2, §3

[14] = system: 5-HT1B/1D receptors; design: method as in doi:10.1186/1129-2377-14-S1-P75; conditions: cited from earlier work
[15] = system: α-adrenergic2C; conditions: IV DHE (53 ng/mL); cited from earlier work
[16] = system: 5-HT1A; conditions: IV DHE (53 ng/mL); cited from earlier work
[17] = system: 5-HT1D; conditions: IV DHE (53 ng/mL); cited from earlier work
[18] = system: 5-HT1D; design: method as in doi:10.1186/1129-2377-14-S1-P75; conditions: cited from earlier work
[19] = system: D2S; conditions: IV DHE (53 ng/mL); cited from earlier work
[20] = 1.0 mg of IV DHE, phase 1 study, cited from earlier work
[21] = system: D3; conditions: IV DHE (53 ng/mL); cited from earlier work
[22] = biological target: T11, human 5-HT4E receptor (Homo sapiens, UniProt Q13639); test: Radioligand competition binding, [3H]GR 113808, CHO cell membranes
T11 construct: host or cells: CHO
T11 sequence (Q13639 1-378 isoform Q13639-5): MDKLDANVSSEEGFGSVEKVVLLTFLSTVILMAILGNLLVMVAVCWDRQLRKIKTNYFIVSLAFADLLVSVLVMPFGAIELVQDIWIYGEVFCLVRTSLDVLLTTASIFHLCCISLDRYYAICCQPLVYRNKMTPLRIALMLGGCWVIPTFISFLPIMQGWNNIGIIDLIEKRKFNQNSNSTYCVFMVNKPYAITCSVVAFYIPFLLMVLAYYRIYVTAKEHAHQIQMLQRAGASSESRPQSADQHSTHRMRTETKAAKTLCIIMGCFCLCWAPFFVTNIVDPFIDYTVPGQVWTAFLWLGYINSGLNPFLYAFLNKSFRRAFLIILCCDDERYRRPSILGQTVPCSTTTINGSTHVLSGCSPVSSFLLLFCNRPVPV
Experimental: Nonspecific binding was determined in the presence of 100 μM serotonin. Following incubation, the same protocol as described above for 5-HT3 binding was employed. The standard reference compound for 5-HT4E binding is serotonin.

[23] = biological target: T9, D5; test: Radioligand competition binding, [3H]SCH 23390, GH4 cells
Experimental: as §4

CN1C[C@H](C(=O)N[C@]2(C)O[C@@]3(O)[C@@H]4CCCN4C(=O)[C@H](Cc4ccccc4)N3C2=O)C[C@@H]2c3cccc4[nH]cc(c34)C[C@H]21 [DHE, Dihydroergotamine mesylate]
IC50 [1]: 149 nM | DHE activity (screening) ([1]; 10 μM, >50% inhibition = antagonist): Antagonist | inhibition at 10 µM ([1]; 10 μM, agonist control Serotonin at EC80): 92% | DHE binding/activity at CXCR7 [2]: Additional notes • Radioligand binding assays reported here did not show DHE binding at concentrations <1.0 μM; therefore, agonist activity of DHE on CXCR7 is unlikely in clinically relevant conditions | EC50 [3]: 6000 nM | DHE activity (screening) ([3]; 10 μM, >30% activity = agonist): Agonist | IC50 [4]: 0.47 nM | receptor radioligand binding (active binding) [5]: X (An X denotes active binding) | receptor radioligand binding (active binding) [6]: X (An X denotes active binding) | DHE activity (screening) [7]: Agonist | DHE activity (screening) [8]: Agonist | DHE activity (screening) [9]: Agonist | DHE activity (screening) [10]: Agonist | DHE activity (screening) [11]: Agonist | DHE activity (screening) [12]: Agonist | DHE activity (screening) [13]: Agonist | time bound to the receptors longer than sumatriptan ([14]; 5-HT1B and 5-HT1D): 8 to 14 h | dissociation half-lives, times longer than those of sumatriptan ([14]; human 5-HT1B and 5-HT1D): approximately 10 times | receptor radioligand binding (active binding) [15]: X (An X denotes active binding) | receptor radioligand binding (active binding) [16]: X (An X denotes active binding) | receptor radioligand binding (active binding) [17]: X (An X denotes active binding) | dissociation half-life [18]: 1.28 h | receptor radioligand binding (active binding) [19]: X (An X denotes active binding) | Human plasma Cmax [20]: 14.2 ng/mL | Cmax ([20]; read-out: Human plasma Cmax): ~24 nM | receptor radioligand binding (active binding) [21]: X (An X denotes active binding) | IC50 [22]: 230 nM | IC50 [23]: 370 nM
